{
  "source": "patent US20250134926A1",
  "about": "“COMPOSITION FOR ANTI-CANCER TREATMENT COMPRISING IMMUNOGENIC TUMOR-DERIVED EXTRACELLULAR VESICLES USING AN ENDOPLASMIC RETICULUM STRESS INDUCER AND METHOD FOR PRODUCING THE SAME” (priority 2023, published 2025)",
  "tested_on": "melanoma cell line B16F10",
  "assay": "MTT cytotoxicity evaluation of pretreatment substances",
  "type": "cell-based, mouse",
  "conditions": "for viability of tumor cells: B16F10, 24 hours",
  "description": "To conduct the cytotoxicity evaluation of each pretreatment substance (tunicamycin and metformin) on the melanoma cell line B16F10, 3-(4,5-dimethylthiazol-2-yl)-2,5-diphenyltetrzolium bromide (MTT) assay was performed. First, 10^4 cells were seeded in each 96-well plate and cultured for 24 hours. Then, cells in each well were treated with each substance at a given concentration and cultured for an additional 24 hours. After the supernatant was discarded, the cells were treated with an MTT-containing medium at the concentration of 0.5 mg/ml and left for two hours, and the intracellular formazan crystals were dissolved in each well using dimethylsulfoxide. Then, the cytotoxicity was analyzed by measuring the absorbance at 570 nm by using a microplate reader.",
  "data": [
    {"substance": "tunicamycin", "values": [
      {"measurement": "viability of tumor cells", "setting": "concentrations of 0.05 μM or less", "result": "no significant decrease"},
      {"measurement": "viability of tumor cells", "setting": "concentrations of 0.1 μM or more", "result": "decrease in cell viability"},
      {"measurement": "highest concentration at which no decrease in cell viability was observed", "setting": "B16F10, MTT, 24 hours", "result": 0.05, "unit": "µM"}
    ]}
  ]
}
